Values quoted from earlier work as cited in patent US5006329A, “Radioactive tagged compounds and method for the treatment of metastatic bone cancer” (priority 1989, dated 1991).

Legend:
[1] = for high energy beta emissions: e.g.
bone cancer = conditions: HMDP with Samarium-153 label
bone marrow = conditions: after treatment of a patient; reported
metastatic bone cancer = conditions: over 100 patients
malignant bone tissue = conditions: tumor vs normal bone

Row | Compound | half-life (radioactive) [1] | high energy beta emissions [1] | safety with respect to healthy bone marrow tissue (bone cancer) | effectiveness in treating the malignancy (bone cancer; preliminary results) | blood profile changes (bone marrow) | degree of malignancy (metastatic bone cancer) | dose of radioactivity to bone marrow (metastatic bone cancer) | pain (metastatic bone cancer) | effectiveness in treating the cancer (metastatic bone cancer; Dr. Ralph Robinson) | accretion rate of tumor compared with normal bone (malignant bone tissue)
1 | [153Sm] [Samarium-153] | two | 600-700 KeV | indeterminate | promising | blood profile changes occur |  |  |  |  | 
2 | Strontium-89 |  | 800 KeV |  |  | blood profile changes occur | reduced | unacceptably high | reduced | acceptable | 
3 | O=P([O-])([O-])CP(=O)(O)O.[Na+].[Na+] [MDP, disodium methylene-diphosphonate] |  |  |  |  |  |  |  |  |  | substantially higher than normal bone
